Experimental data: US6652874B2, “Pharmaceutical preparations and methods for their regional administration” (FemmePharma, priority 1997, dated 2003)

Legend:
[1] = rat, in vivo
Description: Mature female Sprague-Dawley rats were used for the experiment. 1 mg of the microparticulate danazol was delivered in a volume of 50 μl to the vaginal vault and the animals sacrificed at the times noted below. The uterus and ovaries were separately homogenized and blood was drawn. All tissues and biological samples were processed. Danazol was extracted and assayed by HPLC methodology.
Danazol was extracted from serum and tissue hexane/chloroform 80/20. For tissues, 1 ml aliquote of each homogenate was taken. The extracted danazol was reconstituted in a water/acetonitrile mobile phase and a Beckman Ultrasphere 5 micron, 4.6 mm×15 cm reverse phase column (C-18 RP) was used for all the HPLC analyses. A danazol recovery study was conducted using danazol drug product. The recovery was determined by comparing the extracted signal with unextracted signal.

[2] = high doses, up to 800 mg daily; cited from earlier work

C#C[C@]1(O)CC[C@H]2[C@@H]3CCC4=Cc5oncc5C[C@]4(C)[C@H]3CC[C@@]21C [Danazole, Danazol]
Serum drug levels (in words) [1]: almost undetectable
Adverse side effects [2]: adverse side effects are seen
